Results reported in US20240335569A1, “FIBROBLAST ACTIVATION PROTEIN INHIBITORS AND USE THEREOF” (3 B PHARMACEUTICALS GMBH, priority 2021, published 2024).

Key:
Human recombinant FAP [1] = target: T1, Human recombinant FAP (Homo sapiens (Human), UniProt Q12884); assay: Surface plasmon resonance assay (Biacore T200, SCK); assay type: binding; settings: for HL [min] (Biacore): SPR dissociation half-life
Description: Surface plasmon resonance studies were performed using a Biacore™ T200 SPR system (Cytiva, formerly GE Healthcare). Briefly, polarized light is directed towards a gold-labeled sensor surface, and minimum intensity reflected light is detected. The angle of reflected light changes as molecules bind and dissociate. […] Test compounds are contacted with the loaded surface, and a real-time interaction profile with the FAP ligand is recorded in a sensorgram. In real-time, the association and dissociation of a binding interaction is measured, enabling calculation of association and dissociation rate constants and the corresponding affinity constants. Importantly, a background response is generated due to the difference in the refractive indices of the running and sample buffers, as well as unspecific binding of the test compounds to the flow cell surface. This background is measured and subtracted by running the sample on a control flow cell coated with the same density of capture antibody in the absence of immobilized FAP. Furthermore, baseline drift correction of the binding data is performed, which is caused by slow dissociation of the captured FAP from the immobilized antibody. This drift is measured by injecting running buffer through a flow cell with the antibody and FAP immobilized to the sensor surface.
Biacore™ CM5 sensor chips were used. […] A 150 μL aliquot was transferred into plastic vials and placed into the sample rack of the Biacore™ T200 instrument. Amine Coupling Kit Reagent solutions were transferred into plastic vials and placed into the sample rack: 90 μL of 0.4 M 1-ethyl-3-(3-dimethylaminopropyl) carbodiimide (EDC), and 90 μL of 0.1 M N-hydroxysuccinimide (NHS). A 130 μL aliquot of 1 M ethanolamine-HCl, pH 8.5, was transferred into plastic vials and placed into the sample rack. The Biacore™ liquid system was set-up as follows: Separate bottles containing distilled water (1 L), Running Buffer (500 mL), as well as an empty bottle for waste were placed onto the buffer tray. A preinstalled program for immobilization was used, with an immobilization level of 7000 RU. Immobilization was performed at 25° C. The immobilization procedure of anti-FAP antibodies was performed, as described in the Table 4.
Human recombinant FAP was diluted in Running Buffer to a final concentration of 20 μg/mL. A 100 μL aliquot of human FAP-Working-Solution was transferred into plastic vials and placed into a sample rack. A 0.5 mM Compound-Stock-Solution was prepared by dissolving each compound in DMSO. For each test compound, Compound-Stock-Solutions were diluted in Running Buffer (HBST) at 500 nM and further diluted with HBST-DMSO Buffer (0.1% DMSO). SPR binding analyses for binary complexes were performed in SCK mode at 25° C. Following three SCK measurements, a baseline drift was assessed by injecting running buffer through a flow cell, with the antibody and FAP immobilized to the sensor surface.
For each test compound, SPR raw data in the form of resonance units (RU) were plotted as sensorgrams using the Biacore™ T200 control software. The signal from the blank sensorgram was subtracted from that of the test compound sensorgram (blank corrected). The blank corrected sensorgram was corrected for baseline drift by subtracting the sensorgram of a SCK run without the test compound (running buffer only). The association rate (kon), dissociation rate (koff), dissociation constant (KD), and t1/2 were calculated from Blank-normalized SPR data using the 1:1 Langmuir binding model from the Biacore™ T200 evaluation software. Raw data and fit results were imported as text files in IDBS. The pKD value (negative decadic logarithm of dissociation constant) was calculated in the IDBS excel template.
Target sequence in this assay (Q12884 whole entry): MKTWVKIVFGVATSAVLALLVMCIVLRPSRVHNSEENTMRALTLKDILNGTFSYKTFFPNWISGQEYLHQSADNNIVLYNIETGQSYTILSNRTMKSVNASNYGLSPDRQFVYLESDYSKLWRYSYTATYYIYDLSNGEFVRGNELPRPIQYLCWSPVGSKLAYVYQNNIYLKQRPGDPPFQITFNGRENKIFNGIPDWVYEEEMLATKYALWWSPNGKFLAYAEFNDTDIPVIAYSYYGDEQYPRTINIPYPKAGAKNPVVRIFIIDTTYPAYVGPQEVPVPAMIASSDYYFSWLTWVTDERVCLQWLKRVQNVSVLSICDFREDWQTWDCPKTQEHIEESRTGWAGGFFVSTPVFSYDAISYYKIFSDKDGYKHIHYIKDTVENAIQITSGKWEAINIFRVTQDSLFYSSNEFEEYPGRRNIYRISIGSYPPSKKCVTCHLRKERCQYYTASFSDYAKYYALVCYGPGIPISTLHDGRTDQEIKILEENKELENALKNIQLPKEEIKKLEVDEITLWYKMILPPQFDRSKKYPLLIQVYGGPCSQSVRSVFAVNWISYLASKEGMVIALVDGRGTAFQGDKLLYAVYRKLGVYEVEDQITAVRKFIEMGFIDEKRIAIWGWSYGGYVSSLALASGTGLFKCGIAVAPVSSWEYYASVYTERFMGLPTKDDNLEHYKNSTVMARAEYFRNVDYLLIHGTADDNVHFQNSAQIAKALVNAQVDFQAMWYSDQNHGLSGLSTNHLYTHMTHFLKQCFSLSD

Human recombinant FAP [2] = target: T1, Human recombinant FAP; assay: FAP protease activity assay (human), FRET-based; assay type: biochemical
Description: In order to determine the inhibitory activity a FRET-based FAP protease activity assay was established.
Four parameter logistic (4PL) curve fitting and pIC50 calculations were performed using ActivityBase software (IDBS).
Target sequence in this assay (Q12884 26-760): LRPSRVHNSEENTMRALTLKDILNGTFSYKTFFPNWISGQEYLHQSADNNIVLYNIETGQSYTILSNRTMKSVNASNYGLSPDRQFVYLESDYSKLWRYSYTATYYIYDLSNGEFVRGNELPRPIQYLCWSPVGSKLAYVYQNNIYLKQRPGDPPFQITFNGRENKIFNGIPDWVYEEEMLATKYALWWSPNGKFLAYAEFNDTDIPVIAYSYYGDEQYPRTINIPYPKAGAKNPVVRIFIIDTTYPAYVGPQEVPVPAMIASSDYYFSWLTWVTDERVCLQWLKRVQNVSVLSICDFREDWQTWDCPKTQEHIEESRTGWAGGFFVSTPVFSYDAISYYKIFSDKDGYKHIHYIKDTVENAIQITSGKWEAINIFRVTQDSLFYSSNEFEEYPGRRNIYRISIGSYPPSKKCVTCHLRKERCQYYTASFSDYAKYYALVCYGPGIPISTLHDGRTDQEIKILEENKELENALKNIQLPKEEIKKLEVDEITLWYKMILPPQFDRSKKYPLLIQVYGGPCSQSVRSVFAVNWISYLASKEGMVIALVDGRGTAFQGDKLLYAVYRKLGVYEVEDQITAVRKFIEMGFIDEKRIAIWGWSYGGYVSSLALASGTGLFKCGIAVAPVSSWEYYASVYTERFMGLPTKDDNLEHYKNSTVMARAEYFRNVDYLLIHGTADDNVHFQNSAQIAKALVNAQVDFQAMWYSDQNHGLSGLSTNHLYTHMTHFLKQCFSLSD

[3] = target: FAP-expressing human WI-38 fibroblasts (Homo sapiens (Human), UniProt Q12884); assay: FACS binding assay (competitive, Cy5-labeled 3BP-2935)
FAP-expressing human WI-38 fibroblasts, sequence (Q12884 whole entry): as the sequence (Q12884 whole entry) above
Description: In order to determine binding of compounds according to the present invention to FAP-expressing cells, a competitive FACS binding assay was established. […] Cells were diluted in FACS buffer to a final concentration of 100.000 cells per ml and 200 μl of the cell suspension are transferred to a u-shaped non-binding 96-well plate (Greiner). […] Cell were washed twice with FACS buffer (see above) and resuspended in 200 μl FACS buffer. Cells were analyzed in an Attune NxT flow cytometer (Thermo Fisher Scientific). Median fluorescence intensities (Cy5 channel) were calculated by Attune NxT software and plotted against test compound concentrations. Four parameter logistic (4PL) curve fitting and pIC50 calculations were performed using ActivityBase software.

[4] = recombinant human FAP, FRET protease activity
[5] = FAP-expressing WI-38 fibroblasts
[6] = human FAP protease activity, FRET

SMILES	HL [min] (Biacore) (Human recombinant FAP [1])	pIC50 (Activity) (Human recombinant FAP [2]; [4])	pIC50 (FACS) [3, 5]	further results
N#C[C@@H]1CC(F)(F)CN1C(=O)CNC(=O)c1ccnc2ccc(-c3ccc(C(=O)NCCCNC(=O)CN4CCN(CC(=O)O)CCN(CC(=O)O)CCN(CC(=O)O)CC4)cc3)cc12 [Compound 3BP-3621]	>150			pKD (Biacore) (Human recombinant FAP [1]; SPR): >10.5
CC(C)(C)OC(=O)N1CC[N+]([O-])(CCCOc2ccc3nccc(C(=O)NCC(=O)N4CC(F)(F)C[C@H]4C#N)c3c2)CC1 [Compound 3BP-3577]		9	8.6	
N#C[C@@H]1CCCN1C(=O)CNC(=O)c1ccnc2ccc(-c3ccc(C(=O)NCCCNC(=O)CN4CCN(CC(=O)O)CCN(CC(=O)O)CCN(CC(=O)O)CC4)cc3)cc12 [Compound 3BP-3785]	>150			
O=C(NCC(=O)N1CCC[C@H]1C(=O)CO)c1ccnc2ccccc12 [Compound 3BP-4197, (S)—N-(2-(2-(2-hydroxyacetyl)pyrrolidin-1-yl)-2-oxoethyl)quinoline-4-carboxamide]	3.1			IC50 (Human recombinant FAP [2]; human FAP protease activity, FRET, read-out: pIC50 (Activity) (converted)): 3.16 nM; IC50 ([3]; WI-38 fibroblasts): 10 nM; Kd (Human recombinant FAP [1]; SPR, read-out: pKD (Biacore) (converted)): 1 nM
N#C[C@@H]1CC(F)(F)CN1C(=O)CNC(=O)c1ccnc2ccc(-c3ccc(C(=O)NCCN4CCN(C(=O)CN5CCN(CC(=O)O)CCN(CC(=O)O)CCN(CC(=O)O)CC5)CC4)cc3)cc12 [Compound 3BP-3631]	>150			pKD (Biacore) (Human recombinant FAP [1]; SPR): >10.5
CS(=O)(=O)c1ccc(-c2ccc3nccc(C(=O)NCC(=O)N4CC(F)(F)C[C@H]4C#N)c3c2)c(CO)c1 [Compound 3BP-4084, (S)—N-(2-(2-cyano-4,4-difluoropyrrolidin-1-yl)-2-oxoethyl)-6-(2-(hydroxymethyl)-4-(methylsulfonyl)phenyl)quinoline-4-carboxamide]	>150			
CC(C)(C)OC(=O)N1CCN(CCCOc2ccc3c(c2)c(C(=O)NCC(=O)N2CC(F)(F)C[C@H]2C#N)cc[n+]3[O-])CC1 [Compound 3BP-3579]		8.6	8	
Cc1cccc2c(C(=O)NCC(=O)N3CC(F)(F)C[C@H]3C#N)ccnc12 [Compound 3BP-4150]				pIC50 (Activity) (Human recombinant FAP [2]; [6]): 7.9; pIC50 (FACS) ([3]; WI-38 fibroblasts): 7.6
CCOc1cccc2c(C(=O)NCC(=O)N3CC(F)(F)C[C@H]3C#N)ccnc12 [Compound 3BP-4151]				pIC50 (Activity) (Human recombinant FAP [2]; [6]): 8.5; pIC50 (FACS) ([3]; WI-38 fibroblasts): 7.7
CS(=O)(=O)c1ccc(-c2ccc3c(C(=O)NCC(=O)N4CC(F)(F)C[C@H]4C#N)ccnc3c2)cc1 [Compound 3BP-3236]	37			
O=C(O)CN1CCN(CC(=O)O)CCN(CC(=O)NCCCNC(=O)c2ccc(-c3ccc4nccc(C(=O)NCC(=O)N5CCC[C@H]5B(O)O)c4c3)cc2)CCN(CC(=O)O)CC1 [Compound 3BP-4201]	>150			pKD (Biacore) (Human recombinant FAP [1]; SPR): >10.5
CC(C)(C)OC(=O)N1CCN(CCCOc2ccc3nccc(C(=O)NCC(=O)N4CC(F)(F)C[C@H]4C#N)c3c2)CC1 [Compound 3BP-3580]		8.8	8.4	
O=C(NCC(=O)N1CCC[C@H]1B(O)O)c1ccnc2ccccc12 [Compound 3BP-4081]				pIC50 (Activity) (Human recombinant FAP [2]; [6]): 8.9; pIC50 (FACS) ([3]; WI-38 fibroblasts): 8.5
Cn1ncnc1C(=O)[C@@H]1CCCN1C(=O)CNC(=O)c1ccnc2ccccc12 [Compound 3BP-3207]		6.5	<6	
COc1cccc2c(C(=O)NCC(=O)N3CC(F)(F)C[C@H]3C#N)ccnc12 [Compound 3BP-4085]				pIC50 (Activity) (Human recombinant FAP [2]; [6]): 8.2; pIC50 (FACS) ([3]; WI-38 fibroblasts): 7.7
CC(C)(C)OC(=O)N1CC[N+]([O-])(CCCOc2ccc3c(c2)c(C(=O)NCC(=O)N2CC(F)(F)C[C@H]2C#N)cc[n+]3[O-])CC1 [Compound 3BP-3578]		8.6	8	
